The record followed here is patent EP4745138A1, “THIO-GLUTARIMIDO ISOINDOLINONE DERIVATIVE, BIFUNCTIONAL PROTEIN DEGRADER CONTAINING SAME, AND USES THEREOF” (Gluetacs Therapeutics (Shanghai) Co., Ltd., priority 2023, dated 2025).

One test has as its system SW620. The test is described as follows: Tumor cell proliferation inhibition (CellTiter-Meiluncell Luminescent Cell Viability Assay). Conditions: Homo sapiens, 96 hours; for inhibition at 0.01 µM: SW-620, 10 nM, read-out: Inhibition Rate at 10 nM (%); for inhibition at 0.5 µM: SW-620, 500 nM, read-out: Inhibition Rate at 500 nM (%). The test is classed as cell-based. How it is done:
(§1) The tumor cells used herein were cultured in a cell culture medium listed in table 3 at 37°C in an incubator with 5% CO2. Prior to experimentation, all cell lines used were correctly identified by STR profiling, and tested negative for mycoplasma contamination using a mycoplasma detection kit through routine screenings. Table 3. Tumor cells and cell culture medium used in the present disclosure
(§2) The IC50 values of the compounds of the present disclosure (including the compounds in Table 1, Table 2, and Examples) were determined using the CellTiter-Meiluncell Luminescent Cell Viability Assay Kit from Dalian Meilun Biotech Co., Ltd. The detailed procedure is as follows: Tumor cells were seeded in 96-well cell culture plates at the densities specified in Table 4. On the following day, the test compounds of the present disclosure were subjected to serial dilution. […] Subsequently, 0.5 µL of the test compound dilution was transferred into the 96-well plate containing the cells, with each well containing 100 µL of cell culture medium. […] Into the 96-well plate, the diluted test compounds and corresponding detection reagents were added, resulting in final test compound concentrations of 500 nM and 10 nM, respectively. The experimental procedure is described below using the diluted 2 µM test compound as an example.
(§3) 0.5 µL of the aforementioned diluted compound of the present disclosure (including the compounds in Table 1, Table 2, and Examples) was added to the seeded cells in 100 µL of medium, yielding a final test compound concentration of 10 nM. After the cells were treated with the compounds of the present disclosure for a specified period, the cell viability assay reagent was added to the culture medium according to the kit's instructions to determine cell viability. […] All controls were treated using the same procedure as the compounds of the present disclosure. […] Seeding protocol and treatment time for tumor cells

The test system of a further test is MM.1S. The test is described as above. In kind it is cell-based. Conditions: for inhibition at 0.5 µM / inhibition at 0.01 µM: Homo sapiens, MM1.S; for inhibition at 0.5 µM: read-out: Inhibition Rate at 500 nM (%); for inhibition at 0.01 µM: read-out: Inhibition Rate at 10 nM (%). How it is done: as §1, §2, §3
Test [1] has as its target T1, human Cereblon WT GST-tagged protein (Homo sapiens, UniProt Q96SW2).
T1 construct: purchased CISBIO 64BDCRBNPEH
Put plainly: CRBN-binding affinity, HTRF (CEREBLON BINDING kit). Conditions: for inhibition at 0.5 µM: read-out: Inhibition Rate at 0.5 µM (%); for inhibition at 2 µM: read-out: Inhibition Rate at 2 µM (%). Summed up:
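HTRF competition against a thalidomide-red probe using GST-tagged Cereblon and Eu-labelled anti-GST antibody. Test concentrations (final): 2 µM and 0.5 µM in diluent #9 (1X); blank controls lack compound and protein, containing PROTAC binding buffer.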

A further test has as its system MV-4-11. Put plainly: Tumor cell proliferation inhibition (CellTiter-Meiluncell Luminescent Cell Viability Assay). The test is classed as cell-based. The following applies: Homo sapiens, 96 hours; for inhibition at 0.01 µM: MV4-11, 10 nM, read-out: Inhibition Rate at 10 nM (%); for inhibition at 0.5 µM: MV4-11, 500 nM, read-out: Inhibition Rate at 500 nM (%). As for the experimental part:
as §1, §2, §3

Like-named read-outs stand apart in the source and are kept apart here.

T1 sequence (Q96SW2 whole entry): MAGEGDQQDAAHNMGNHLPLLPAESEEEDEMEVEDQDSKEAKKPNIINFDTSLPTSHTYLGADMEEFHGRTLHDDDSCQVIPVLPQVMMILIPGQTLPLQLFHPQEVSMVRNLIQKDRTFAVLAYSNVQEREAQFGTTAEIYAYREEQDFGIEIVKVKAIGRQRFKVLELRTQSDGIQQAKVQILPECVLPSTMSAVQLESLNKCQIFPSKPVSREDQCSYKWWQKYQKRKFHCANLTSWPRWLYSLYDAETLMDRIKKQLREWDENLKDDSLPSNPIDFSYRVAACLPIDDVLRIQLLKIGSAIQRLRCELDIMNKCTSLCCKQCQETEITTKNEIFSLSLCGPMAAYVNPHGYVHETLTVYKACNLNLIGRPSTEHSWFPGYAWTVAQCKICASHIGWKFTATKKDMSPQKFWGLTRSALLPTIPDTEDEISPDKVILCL

As to `CC1(C)CCC(CN2CCN(c3ccc(C(=O)NS(=O)(=O)c4ccc(NCC5CCOCC5)c([N+](=O)[O-])c4)c(Oc4cnc5[nH]ccc5c4)c3)CC2)=C(c2ccc(Cl)cc2)C1` [ABT-199, Venetoclax, reference compound], in the test on SW620 (Table I-15, BCL-2 inhibitors), the inhibition at 0.01 µM is 5 to 10% and the inhibition at 0.5 µM fell in the range of 5 to 10%.

`Nc1cccc2c1CN(C1CCC(=O)NC1=O)C2=O` (centres unmarked) [Lenalidomide, lenalidomide, reference compound]: in the test with MM.1S (96 h), the inhibition at 0.5 µM was in the range of 30 to 35%. In addition, the “Inhibition Rate at 10 nM (%)” value in the test on MM.1S (MM.1S, 10 nM, 96 hours, Table I-16, compounds of Formula (II)) was “ln2”.

Take `CC1(C)CCC(c2ccc(Cl)cc2)=C(CN2CCN(c3ccc(C(=O)NS(=O)(=O)c4ccc(N[C@H](CCN5CCN(Cc6ccc7c(c6)CN(C6CCC(=O)NC6=O)C7=S)CC5)CSc5ccccc5)c(S(=O)(=O)C(F)(F)F)c4)cc3)CC2)C1` (stereo partly drawn) [GT-09415, 4-(4-((4'-chloro-4,4-dimethyl-3,4,5,6-tetrahydro-[1,1'-biphenyl]-2-yl)methyl)piperazin-1-yl)-N-((4-(((2R)-4-(4-((2-(2,6-dioxopiperidin-3-yl)-1-thioxoisoindolin-5-yl)methyl)piperazin-1-yl)-1-(phenylthio)butan-2-yl)amino)-3-((trifluoromethyl)sulfonyl)phenyl)sulfonyl)benzamide]: in the test with SW620 (Table I-15, BCL-2 inhibitors), the inhibition at 0.01 µM lay in the range of 30 to 40% and the inhibition at 0.5 µM is 80 to 100%. Moreover, in test [1], the inhibition at 0.5 µM is 53 to 60% and the inhibition at 2 µM fell in the range of 80 to 100%.

As to `O=C1CCC(N2Cc3c(CN4CCN(c5ccc(-c6cc(F)c7c(c6)C(=O)N(C(C(=O)Nc6nccs6)c6ncn8c6CCC8)C7)cc5)CC4)cccc3C2=S)C(=O)N1` (centres unmarked) [GT-09429, 2-(6,7-dihydro-5H-pyrrolo[1,2-c]imidazol-1-yl)-2-(6-(4-(4-((2-(2,6-dioxopiperidin-3-yl)-1-thioxoisoindolin-4-yl)methyl)piperazin-1-yl)phenyl)-4-fluoro-1-oxoisoindolin-2-yl)-N-(thiazol-2-yl)acetamide], in the test on SW620 (Table I-3, EGFR inhibitors), the inhibition at 0.01 µM was in the range of 10 to 20% and the inhibition at 0.5 µM fell in the range of 70 to 80%.

As to `CNC(=O)c1ccc(Nc2ncc(C(F)(F)F)c(NCc3nccnc3N(C)S(C)(=O)=O)n2)cc1` [Defactinib, reference compound], the inhibition at 0.01 µM lay in the range of 10 to 20% in the test with MM.1S (MM.1S, 10 nM, 96 hours, Table I-12, FAK inhibitors); 0 to 5% in the test on MV-4-11 (Table I-12, FAK inhibitors); 0 to 5% in the test with SW620 (Table I-12, FAK inhibitors). Also, the inhibition at 0.5 µM with MM.1S (MM.1S, 500 nM, 96 hours, Table I-12, FAK inhibitors) was 5 to 10%; in the test with MV-4-11 (Table I-12, FAK inhibitors), 50 to 60%; with SW620 (Table I-12, FAK inhibitors), 5 to 10%.

As to `CN(C)C(=O)c1cc2cnc(Nc3ccc(N4CCNCC4)cn3)nc2n1C1CCCC1` [Ribociclib, reference compound], the inhibition at 0.01 µM is 10 to 20% in the test on MM.1S (MM.1S, 10 nM, 96 hours, Table I-9, CDK4/6 inhibitors) and 5 to 10% with MV-4-11 (Table I-9, CDK4/6 inhibitors). Besides, the inhibition at 0.5 µM in the test with MM.1S (MM.1S, 500 nM, 96 hours, Table I-9, CDK4/6 inhibitors) was 10 to 20%; with MV-4-11 (Table I-9, CDK4/6 inhibitors), 20 to 30%.

In the case of `O=C1CCC(N2Cc3cc(CN4CCN(c5ccc6c(c5)nc(NC(=O)c5cccc(C(F)(F)F)c5)n6[C@H]5CC[C@@H](CO)CC5)CC4)ccc3C2=S)C(=O)N1` (relative stereo) [GT-05293, N-(5-(4-((2-(2,6-dioxopiperidin-3-yl)-1-thioxoisoindolin-5-yl)methyl)piperazin-1-yl)-1-((1s,4s)-4-(hydroxymethyl)cyclohexyl)-1H-benzo[d]imidazol-2-yl)-3-(trifluoromethyl)benzamide], in the test on MV-4-11 (Table I-6, IRAK4 inhibitors), the inhibition at 0.01 µM was in the range of 10 to 20% and the inhibition at 0.5 µM was in the range of 60 to 70%. Besides, in test [1], the inhibition at 0.5 µM fell in the range of 40 to 53% and the inhibition at 2 µM was 60 to 80%.

With `O=C1CCC(N2Cc3c(CN4CCC(n5cc(NC(=O)c6cnn7ccc(N8C[C@H]9C[C@@H]8CO9)nc67)c(C(F)F)n5)CC4)cccc3C2=S)C(=O)N1` (stereo partly drawn) [GT-05288, 5-((1R,4R)-2-oxa-5-azabicyclo[2.2.1]heptan-5-yl)-N-(3-(difluoromethyl)-1-(1-((2-(2,6-dioxopiperidin-3-yl)-1-thioxoisoindolin-4-yl)methyl)piperidin-4-yl)-1H-pyrazol-4-yl)pyrazolo[1,5-a]pyrimidine-3-carboxamide], in the test with MV-4-11 (Table I-6, IRAK4 inhibitors), the inhibition at 0.01 µM is 0 to 5% and the inhibition at 0.5 µM lay in the range of 40 to 50%. Besides, in test [1], the inhibition at 0.5 µM was 53 to 60% and the inhibition at 2 µM lay in the range of 80 to 100%.

As for `COc1cc2nn(C3CCN(Cc4ccc5c(c4)CN(C4CCC(=O)NC4=O)C5=S)CC3)cc2cc1NC(=O)c1cccc(C(F)(F)F)n1` (centres unmarked) [GT-05296, N-(2-(1-((2-(2,6-dioxopiperidin-3-yl)-1-thioxoisoindolin-5-yl)methyl)piperidin-4-yl)-6-methoxy-2H-indazol-5-yl)-6-(trifluoromethyl)picolinamide], in the test on MV-4-11 (Table I-6, IRAK4 inhibitors), the inhibition at 0.01 µM lay within 10 to 20% and the inhibition at 0.5 µM was 50 to 60%. For the same compound, in test [1], the inhibition at 0.5 µM fell in the range of 60 to 80% and the inhibition at 2 µM was 80 to 100%.

With `COC1CCN(c2nccc(Nc3cc4c(cn3)c(N3CCN(Cc5ccc6c(c5)CN(C5CCC(=O)NC5=O)C6=S)CC3)nn4C(C)C)n2)CC1` (centres unmarked) [GT-08756, 3-(5-((4-(1-isopropyl-6-((2-(4-methoxypiperidin-1-yl)pyrimidin-4-yl)amino)-1H-pyrazolo[4,3-c]pyridin-3-yl)piperazin-1-yl)methyl)-1-thioxoisoindolin-2-yl)piperidine-2,6-dione], in the test on MV-4-11 (Table I-3, EGFR inhibitors), the inhibition at 0.01 µM is 5 to 10% and the inhibition at 0.5 µM fell in the range of 40 to 50%. Moreover, in test [1], the inhibition at 0.5 µM was 30 to 40% and the inhibition at 2 µM is 80 to 100%.

Turning to `Cc1cc(-c2nc(C(=O)Nc3cc4oc(N5CCN(Cc6cccc7c6CN(C6CCC(=O)NC6=O)C7=S)CC5)nc4nc3N3CC[C@@H](O)C3)co2)ccn1` (stereo partly drawn) [GT-05289, N-(2-(4-((2-(2,6-dioxopiperidin-3-yl)-1-thioxoisoindolin-4-yl)methyl)piperazin-1-yl)-5-((R)-3-hydroxypyrrolidin-1-yl)oxazolo[4,5-b]pyridin-6-yl)-2-(2-methylpyridin-4-yl)oxazole-4-carboxamide], in the test with MV-4-11 (Table I-6, IRAK4 inhibitors), the inhibition at 0.01 µM fell in the range of 5 to 10% and the inhibition at 0.5 µM was 70 to 80%. In test [1], the inhibition at 0.5 µM was in the range of 40 to 53% and the inhibition at 2 µM is 60 to 80%.

Consider `COc1cc(N2CCC(N(C)Cc3cccc4c3CN(C3CCC(=O)NC3=O)C4=S)CC2)c(C)cc1Nc1ncc(Br)c(Nc2ccc3nccnc3c2P(C)(C)=O)n1` (centres unmarked) [GT-08758, 3-(4-(((1-(4-((5-bromo-4-((5-(dimethylphosphoryl)quinoxalin-6-yl)amino)pyrimidin-2-yl)amino)-5-methoxy-2-methylphenyl)piperidin-4-yl)(methyl)amino)methyl)-1-thioxoisoindolin-2-yl)piperidine-2,6-dione], for which, in the test with MV-4-11 (Table I-3, EGFR inhibitors), the inhibition at 0.01 µM was 10 to 20% and the inhibition at 0.5 µM is 60 to 70%. For the same compound, in test [1], the inhibition at 0.5 µM lay in the range of 53 to 60% and the inhibition at 2 µM lay within 60 to 80%.
